Experimental data as given in US20210255193A1, “LYSINE REACTIVE PROBES AND USES THEREOF” (The Scripps Research Institute, priority 2017, published 2021).
Blank lines part the entries; values can stand above or below the molecule they belong to.

How the values were obtained:
Experiment in all cases: competitive isoTOP-ABPP
Assay type in all cases: binding
[1] = biological target: T1, ENOPH1 Enolase-phosphatase E1 (Homo sapiens, UniProt Q9UHY7); conditions: for isoTOP-ABPP ratio, lysine Q9UHY7_K111: 50 uM_231_sol_in vitro; for R value (DMSO/fragment) for probe 1 labeling: Q9UHY7_K111; for R value (DMSO/fragment) for probe 1 labeling / isoTOP-ABPP reactivity ratio at lysine Q9UHY7_K111: 50 uM, 231 sol, in vitro
T1 construct: endogenous in cells; host or cells: MDA-MB-231 (soluble fraction of lysate)
T1 sequence (Q9UHY7 whole entry, the tested form may be a part): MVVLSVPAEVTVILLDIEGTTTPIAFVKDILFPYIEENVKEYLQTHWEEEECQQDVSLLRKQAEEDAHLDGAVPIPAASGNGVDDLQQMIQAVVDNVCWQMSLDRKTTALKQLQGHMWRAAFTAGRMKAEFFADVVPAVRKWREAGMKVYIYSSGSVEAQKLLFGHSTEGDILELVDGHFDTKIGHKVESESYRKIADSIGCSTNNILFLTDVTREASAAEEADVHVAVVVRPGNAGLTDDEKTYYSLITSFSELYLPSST
Outline: (§1)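 Cell lysate (0.5 ml) was pre-treated with fragment, 50 μM for activated esters or 100 μM for guanidinylating agents, versus DMSO, then labeled 1 h at ambient temperature with 0.1 mM STP-alkyne. Light/heavy TEV tags attached by CuAAC; R = DMSO/compound MS1 peak-area ratio, median per lysine.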

[2] = biological target: T2, G6PD Glucose-6-phosphate 1-dehydrogenase (Homo sapiens, UniProt P11413); conditions: for isoTOP-ABPP ratio, lysine P11413_K171: 50 uM_231_sol_in vitro; for R value (DMSO/fragment) for probe 1 labeling: P11413_K171; for R value (DMSO/fragment) for probe 1 labeling / isoTOP-ABPP reactivity ratio at lysine P11413_K171: 231 sol
T2 construct: isoTOP-ABPP experiments performed in cell lysates (in vitro); endogenous in cells; host or cells: MDA-MB-231 soluble lysate
T2 sequence (P11413 whole entry, the tested form may be a part): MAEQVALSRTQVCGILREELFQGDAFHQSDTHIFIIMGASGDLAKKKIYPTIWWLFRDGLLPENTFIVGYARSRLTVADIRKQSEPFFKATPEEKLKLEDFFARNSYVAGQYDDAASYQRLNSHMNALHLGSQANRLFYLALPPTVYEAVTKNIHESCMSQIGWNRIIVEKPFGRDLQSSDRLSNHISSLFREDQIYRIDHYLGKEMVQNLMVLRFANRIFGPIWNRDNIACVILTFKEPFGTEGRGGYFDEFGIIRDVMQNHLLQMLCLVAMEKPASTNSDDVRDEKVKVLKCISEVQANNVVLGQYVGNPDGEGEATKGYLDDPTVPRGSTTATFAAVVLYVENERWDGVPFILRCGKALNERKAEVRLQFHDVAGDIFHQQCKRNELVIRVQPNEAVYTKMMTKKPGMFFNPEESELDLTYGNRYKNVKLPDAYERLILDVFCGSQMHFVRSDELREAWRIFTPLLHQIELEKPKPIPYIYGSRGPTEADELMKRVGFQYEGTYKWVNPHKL
Outline: as §1

[3] = biological target: T3, LMNA Prelamin-A/C (Homo sapiens, UniProt P02545); conditions: for isoTOP-ABPP ratio, lysine P02545_K135: 50 uM_231_sol_in vitro; for R value (DMSO/fragment) for probe 1 labeling: P02545_K135
T3 construct: isoTOP-ABPP experiments performed in cell lysates (in vitro); endogenous in cells; host or cells: MDA-MB-231 soluble lysate
T3 sequence (P02545 1-664): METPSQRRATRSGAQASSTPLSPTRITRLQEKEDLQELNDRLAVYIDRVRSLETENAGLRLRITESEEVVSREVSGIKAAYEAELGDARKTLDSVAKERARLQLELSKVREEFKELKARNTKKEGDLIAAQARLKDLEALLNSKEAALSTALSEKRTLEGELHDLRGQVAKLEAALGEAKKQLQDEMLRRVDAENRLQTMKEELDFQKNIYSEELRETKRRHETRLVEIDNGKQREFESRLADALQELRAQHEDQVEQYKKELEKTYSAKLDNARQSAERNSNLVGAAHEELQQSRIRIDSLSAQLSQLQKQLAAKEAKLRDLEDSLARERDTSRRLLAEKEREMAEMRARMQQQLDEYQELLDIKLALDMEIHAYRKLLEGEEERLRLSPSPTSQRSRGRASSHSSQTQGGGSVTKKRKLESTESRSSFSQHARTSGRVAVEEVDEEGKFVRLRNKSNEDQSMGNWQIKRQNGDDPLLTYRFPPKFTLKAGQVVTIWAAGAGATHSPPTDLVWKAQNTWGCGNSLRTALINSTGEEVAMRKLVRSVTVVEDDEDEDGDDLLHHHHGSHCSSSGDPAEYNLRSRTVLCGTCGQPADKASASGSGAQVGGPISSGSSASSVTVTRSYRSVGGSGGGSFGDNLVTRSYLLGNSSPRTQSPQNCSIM
Outline: as §1

[4] = biological target: T4, WARS Tryptophan--tRNA ligase, cytoplasmic (Homo sapiens, UniProt P23381); conditions: 50 uM, in vitro; for R value (DMSO/fragment) for probe 1 labeling: P23381_K256; for R value (DMSO/fragment) for probe 1 labeling / isoTOP-ABPP reactivity ratio at lysine P23381_K256: 231 sol
T4 construct: isoTOP-ABPP experiments performed in cell lysates (in vitro); endogenous in cells; host or cells: soluble proteome of human cancer cell lines (MDA-MB-231; Ramos and Jurkat also prepared)
T4 sequence (P23381 1-471): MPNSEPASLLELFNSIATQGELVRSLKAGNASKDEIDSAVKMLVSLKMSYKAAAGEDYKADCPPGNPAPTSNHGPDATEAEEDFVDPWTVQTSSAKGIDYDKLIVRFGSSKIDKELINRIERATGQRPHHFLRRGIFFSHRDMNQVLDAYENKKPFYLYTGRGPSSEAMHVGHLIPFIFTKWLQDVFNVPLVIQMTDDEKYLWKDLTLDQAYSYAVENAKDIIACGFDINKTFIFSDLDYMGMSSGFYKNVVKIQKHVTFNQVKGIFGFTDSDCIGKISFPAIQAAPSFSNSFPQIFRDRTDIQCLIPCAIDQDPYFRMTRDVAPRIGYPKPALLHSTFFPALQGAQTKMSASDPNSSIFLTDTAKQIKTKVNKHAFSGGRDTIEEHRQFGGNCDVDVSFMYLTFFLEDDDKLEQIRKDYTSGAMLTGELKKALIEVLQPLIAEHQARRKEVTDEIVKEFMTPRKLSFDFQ
Outline: as §1

isoTOP-ABPP ratio, lysine Q9UHY7_K111 [1]: 0.9
isoTOP-ABPP ratio, lysine P11413_K171 [2]: 0.9
isoTOP-ABPP ratio, lysine P02545_K135 [3]: 1.0
Compound: O=C(Oc1c(F)c(F)cc(F)c1F)c1cc(C(F)(F)F)cc(C(F)(F)F)c1 [fragment 48, 2,3,5,6-Tetrafluorophenyl 3,5-bis(trifluoromethyl)benzoate]

R value (DMSO/fragment) for probe 1 labeling [1]: 1.0
R value (DMSO/fragment) for probe 1 labeling ([2]; 50 uM, in vitro): 0.8
R value (DMSO/fragment) for probe 1 labeling ([3]; 50 uM, 231 sol, in vitro): 1.0
R value (DMSO/fragment) for probe 1 labeling [4]: 1.1
Compound: O=C(Oc1c(F)c(F)c(F)c(F)c1F)c1cc(C(F)(F)F)cc(C(F)(F)F)c1 [fragment 21, Pentafluorophenyl 3,5-bis(trifluoromethyl)benzoate]

isoTOP-ABPP ratio, lysine Q9UHY7_K111 [1]: 7.8
isoTOP-ABPP ratio, lysine P11413_K171 [2]: 1.0
isoTOP-ABPP ratio, lysine P02545_K135 [3]: 1.2
Compound: O=C(Oc1c(F)c(F)c(C(F)(F)F)c(F)c1F)c1cc(C(F)(F)F)cc(C(F)(F)F)c1 [fragment 47, 2,3,5,6-Tetrafluoro-4-(trifluoromethyl)phenyl 3,5-bis(trifluoromethyl)benzoate]

isoTOP-ABPP reactivity ratio at lysine Q9UHY7_K111 [1]: 1.3
isoTOP-ABPP reactivity ratio at lysine P11413_K171 ([2]; 50 uM, in vitro): 1.0
isoTOP-ABPP reactivity ratio at lysine P23381_K256 [4]: 2.3
Compound: O=C(CCc1coc2cc(F)ccc2c1=O)Oc1c(F)c(F)c(F)c(F)c1F [fragment 26, Pentafluorophenyl 3-(7-fluoro-4-oxo-4H-chromen-3-yl)propanoate]

isoTOP-ABPP reactivity ratio at lysine Q9UHY7_K111 [1]: 1.5
isoTOP-ABPP reactivity ratio at lysine P11413_K171 ([2]; 50 uM, in vitro): 0.9
isoTOP-ABPP reactivity ratio at lysine P23381_K256 [4]: 2.7
Compound: O=C(CN1C(=O)c2ccccc2C1=O)Oc1c(F)c(F)c(F)c(F)c1F [fragment 27, Pentafluorophenyl 2-(1,3-dioxoisoindolin-2-yl)acetate]

Further lines, the molecule ahead of its results:

Compound: O=C(CCc1cn(-c2ccccc2)nc1-c1ccccc1)Oc1c(F)c(F)c(F)c(F)c1F [fragment 19, Pentafluorophenyl 3-(1,3-diphenyl-1H-pyrazol-4-yl)propanoate]
R value (DMSO/fragment) for probe 1 labeling [1]: 1.0
R value (DMSO/fragment) for probe 1 labeling ([2]; 50 uM, in vitro): 0.9
R value (DMSO/fragment) for probe 1 labeling ([3]; 50 uM, 231 sol, in vitro): 1.1
R value (DMSO/fragment) for probe 1 labeling [4]: 1.2

Compound: O=C(Oc1ccc([N+](=O)[O-])cc1[N+](=O)[O-])C(c1ccccc1)(c1ccccc1)c1ccccc1 [fragment 42, 2,4-Dinitrophenyl 2,2,2-triphenylacetate]
isoTOP-ABPP ratio (R) at liganded lysine P11413_K171 ([2]; 50 uM, in vitro, sol, 231): 0.9
isoTOP-ABPP ratio (R) at liganded lysine P02545_K135 ([3]; 50 uM, in vitro, sol, 231): 1.0
isoTOP-ABPP ratio (R) at liganded lysine P23381_K256 ([4]; sol, 231): 1.1

Compound: NC(=O)c1cc(C(F)(F)F)cc(C(F)(F)F)c1 [fragment 51, reference compound]
isoTOP-ABPP ratio, lysine Q9UHY7_K111 [1]: 0.9
isoTOP-ABPP ratio, lysine P11413_K171 [2]: 0.9
isoTOP-ABPP ratio, lysine P02545_K135 [3]: 1.0

Compound: COc1cc(CCC(=O)Oc2c(F)c(F)c(F)c(F)c2F)cc(OC)c1OC [fragment 23, Pentafluorophenyl 3-(3,4,5-trimethoxyphenyl)propanoate]
R value (DMSO/fragment) for probe 1 labeling [1]: 1.3
R value (DMSO/fragment) for probe 1 labeling ([2]; 50 uM, in vitro): 2.1
R value (DMSO/fragment) for probe 1 labeling ([3]; 50 uM, 231 sol, in vitro): 0.9

Compound: O=C(Oc1c(F)c(F)c(F)c(F)c1F)C1CCN(C(=O)OCc2ccccc2)CC1 [fragment 24, 1-Benzyl 4-(pentafluorophenyl) piperidine-1,4-dicarboxylate]
isoTOP-ABPP reactivity ratio at lysine Q9UHY7_K111 [1]: 1.4
isoTOP-ABPP reactivity ratio at lysine P11413_K171 ([2]; 50 uM, in vitro): 0.9

Compound: O=C(Oc1ccc([N+](=O)[O-])cc1[N+](=O)[O-])c1cc(C(F)(F)F)cc(C(F)(F)F)c1 [fragment 31, 2,4-Dinitrophenyl 3,5-bis(trifluoromethyl)benzoate]
isoTOP-ABPP reactivity ratio at lysine P11413_K171 ([2]; 50 uM, in vitro): 1.1
isoTOP-ABPP reactivity ratio at lysine P02545_K135 ([3]; 50 uM, 231 sol, in vitro): 1.3
isoTOP-ABPP reactivity ratio at lysine P23381_K256 [4]: 0.9

Compound: CCn1cc(C(=O)Oc2c(F)c(F)c(F)c(F)c2F)c(=O)c2ccc(C)nc21 [fragment 28, Pentafluorophenyl 1-ethyl-7-methyl-4-oxo-1,4-dihydro-1,8-naphthyridine-3-carboxylate]
isoTOP-ABPP reactivity ratio at lysine Q9UHY7_K111 [1]: 1.0
isoTOP-ABPP reactivity ratio at lysine P11413_K171 ([2]; 50 uM, in vitro): 0.9
isoTOP-ABPP reactivity ratio at lysine P23381_K256 [4]: 1.0
